1 molecule from patent US20130209515A1, “ANTI-INFECTIVE AND IMMUNOMODULATORY COMPOUNDS” (priority 2005, published 2013) can be followed below.

In the assay the test system is P. aeruginosa PA14. The assay can be described thus: Mouse burn and infection (BI) model, survival. It is filed as in vivo, mice. Here is the method: Burn wound infection in mice can be established by subcutaneous or topical administration of the bacteria to the sites of the burn. […] Six-week old CD-1 male mice were used.
To induce infection, the mice were placed under general anesthesia via intraperitonial injection of 40 mg/kg Pentobarbital, the ventral surface was shaved, and a central skin fold elevated was simultaneously compressed from both sides for 5 seconds using two 2×2 cm metal blocks preheated to 95-100° C., to produce a non-lethal 5-8% full thickness burn with negligible focal necrosis of the underlying muscle or damage to underlying visceral organs. IP saline was administered for fluid resuscitation for ≧5% total body surface burns: avoiding vital structures, saline was injected into the left lower quadrant of the abdominal area of the anesthetized animal post-burn. This burn procedure was followed by mid-eschar inoculation of 100 μL of bacterial suspension containing ˜5×10^5 CFU. The animals were returned to their cages and provided mouse chow and water ad libitum. Animals typically recover from the anesthesia within 20 minutes post-administration. Criteria used to evaluate anesthesia recovery are state of alertness, mobility, and reaction to surrounding stimuli. Mice were monitored twice a day for symptoms and deaths, with increased monitoring every 6-8 hours during the period of greatest potential for infection and clinical disease.
The mouse full-thickness skin thermal injury infection model was used to test if 2AA restricts P, aeruginosa virulence. This model is predictable and reproducible; clinically relevant; and can lead to MODS and mortality. Briefly, a ˜15% total burn surface area (TBSA) thermal scalding injury is produced on the abdominal skin, leaving the underlying muscle intact, and the inoculum is delivered into the scald eschar. […]

Structures are written as SMILES.

One may read the mortality as the share of the test organisms that died. Consider `CC(=O)c1ccccc1N` [2AA, 2′-aminoacetophenone], for which the “protection (survival curves)” value (10 mM solutions IV 4 days pre-BI (FIGS. 11A, 11B)) is “significantly greater”. In addition, the “time to succumb to PA14 lethality” value (2AA injected in the scald eschar 1 hr post BI (FIG. 7)) is given as “significantly later”. Further, the survival is, setting by setting: (IP 2AA injection 3 days pre-BI) 50%; (IP 2AA injection 8 days pre-BI) 50%. Besides, the mortality was 50% (IP 2AA injection up to 4 weeks pre-BI) and 60% (IP 500 μl of 20 mM, 2 days pre-BI, controls ~90%). Further, for the setting “IV 100 μl of 10 mM, 4 days pre-BI”, the “survival to PA14 infection” value was about 90%. Besides, under “IV tail vein 100 μl of 10 mM, four days prior to burn/infection, n=8-10, control 10% (FIG. 9)”, the “average survival after 5 days” value is 50%. Moreover, under “single IP injection 500 μl of 20 mM, 6 hours pre-BI”, the “protection (survival)” value is listed as “no protection”.
